{"source": "patent US8486919B2", "about": "“4-alkylresorcinol derivative and external preparation for skin containing the same” (Shiseido Company, Ltd., priority 2010, dated 2013)", "key": {"Mouse B16 melanoma cells [1]": {"tested_on": "Mouse B16 melanoma cells", "assay": "Cell proliferation test (cytotoxicity test, Alamar Blue)", "assay_type": "cell-based", "settings": "3 days, ratio to solvent-only group", "procedure": "(§1) The melanin production inhibitory effect and the cytotoxicity was studied according to the following method.\n(§2) (1) Inoculation of Cells and Addition of Test Substances\n(§3) Mouse B16 melanoma cells were inoculated in a six well plate at 100,000 cells/well. The next day, test substance solutions (solvent: dimethylsulfoxide) were added thereto and then subjected to the melanin production inhibition test and cytotoxicity test.\n(2) Cell Proliferation Test\nThree days after the addition of the test substance solution, the medium was removed by aspiration. Then 1 mL of EMEM medium containing 10% Alamar Blue solution was added, and a reaction was allowed to proceed at 37° C. After 30 minutes, 100 μL of the reaction mixture was transferred to a 96 well plate and fluorescence was measured at an excitation wavelength of 544 nm and a measurement wavelength of 590 nm. Using the value thus measured as a relative value of cell count, a ratio of the cell count (% cell count) of the test substance-added group to the test substance-absent group (group in which only the solvent was added) was calculated. The higher the % cell count, the lower the cytotoxicity."}, "Mouse B16 melanoma cells [2]": {"tested_on": "Mouse B16 melanoma cells", "assay": "Melanin production inhibition test", "assay_type": "cell-based", "settings": "3 days, ratio to solvent-only group", "procedure": "as §1, §2, §3\n(3) Melanin Production Inhibition Test\nThree days after the addition of the test substance solution, the medium was removed by aspiration. The cells were washed with a buffer (50 mM phosphate buffer, pH6.8), and then lysed by addition of 1M NaOH to measure an absorbance at 475 nm. Using the value thus measured as a relative value of the melanin amount, a ratio of the melanin amount (%) of the test substance-added group to the test substance-absent group (group in which only the solvent was added) was calculated. The lower the ratio of the melanin amount, the higher the melanin production-inhibitory effect."}, "[3]": {"settings": "final concentration of test compound 1.0 μM"}, "[4]": {"settings": "final concentration of test compound 10 μM"}, "[5]": {"settings": "final concentration of test compound 33 μM"}, "[6]": {"settings": "final concentration of test compound 2.2 μM"}, "[7]": {"settings": "final concentration of test compound 22 μM"}, "[8]": {"settings": "final concentration of test compound 220 μM"}, "[9]": {"settings": "final concentration of test compound 1.6 μM"}, "[10]": {"settings": "final concentration of test compound 16 μM"}, "[11]": {"settings": "final concentration of test compound 52 μM"}, "[12]": {"settings": "final concentration of test compound 9.6 μM"}, "[13]": {"settings": "final concentration of test compound 32 μM"}, "[14]": {"settings": "final concentration of test compound 0.9 μM"}, "[15]": {"settings": "final concentration of test compound 8.5 μM"}, "[16]": {"settings": "final concentration of test compound 28 μM"}, "[17]": {"settings": "final concentration of test compound 2.0 μM"}, "[18]": {"settings": "final concentration of test compound 6.6 μM"}, "[19]": {"settings": "final concentration of test compound 66 μM"}}, "data": [{"smiles": "CCc1ccc(OP(=O)(O)O)cc1OP(=O)(O)O", "note": "[Compound 1, 1,3-bisphosphonooxy-4-ethylbenzene]", "values": [{"measurement": "Cell Count (%)", "setting": "Mouse B16 melanoma cells [1]; [3]", "result": 101, "unit": "%"}, {"measurement": "Cell Count (%)", "setting": "Mouse B16 melanoma cells [1]; [4]", "result": 108, "unit": "%"}, {"measurement": "Cell Count (%)", "setting": "Mouse B16 melanoma cells [1]; [5]", "result": 113, "unit": "%"}, {"measurement": "Melanin Amount Ratio (%)", "setting": "Mouse B16 melanoma cells [2]; [3]", "result": 62, "unit": "%"}, {"measurement": "Melanin Amount Ratio (%)", "setting": "Mouse B16 melanoma cells [2]; [4]", "result": 25, "unit": "%"}, {"measurement": "Melanin Amount Ratio (%)", "setting": "Mouse B16 melanoma cells [2]; [5]", "result": 16, "unit": "%"}]}, {"smiles": "CCc1ccc(O)cc1O", "note": "[Comparative Compound 1, 4-ethylresorcinol]", "values": [{"measurement": "Cell Count (%)", "setting": "Mouse B16 melanoma cells [1]; [6]", "result": 101, "unit": "%"}, {"measurement": "Cell Count (%)", "setting": "Mouse B16 melanoma cells [1]; [7]", "result": 102, "unit": "%"}, {"measurement": "Cell Count (%)", "setting": "Mouse B16 melanoma cells [1]; [8]", "result": 93, "unit": "%"}, {"measurement": "Melanin Amount Ratio (%)", "setting": "Mouse B16 melanoma cells [2]; [6]", "result": 69, "unit": "%"}, {"measurement": "Melanin Amount Ratio (%)", "setting": "Mouse B16 melanoma cells [2]; [7]", "result": 24, "unit": "%"}, {"measurement": "Melanin Amount Ratio (%)", "setting": "Mouse B16 melanoma cells [2]; [8]", "result": 16, "unit": "%"}]}, {"smiles": "Oc1ccc(C2CCCCC2)c(O)c1", "note": "[Comparative Compound 3, 4-cyclohexylresorcinol]", "values": [{"measurement": "Cell Count (%)", "setting": "Mouse B16 melanoma cells [1]; [9]", "result": 99, "unit": "%"}, {"measurement": "Cell Count (%)", "setting": "Mouse B16 melanoma cells [1]; [10]", "result": 98, "unit": "%"}, {"measurement": "Cell Count (%)", "setting": "Mouse B16 melanoma cells [1]; [11]", "result": 76, "unit": "%"}, {"measurement": "Melanin Amount Ratio (%)", "setting": "Mouse B16 melanoma cells [2]; [9]", "result": 43, "unit": "%"}, {"measurement": "Melanin Amount Ratio (%)", "setting": "Mouse B16 melanoma cells [2]; [10]", "result": 22, "unit": "%"}, {"measurement": "Melanin Amount Ratio (%)", "setting": "Mouse B16 melanoma cells [2]; [11]", "result": 17, "unit": "%"}]}, {"smiles": "CC(C)c1ccc(OP(=O)(O)O)cc1OP(=O)(O)O", "note": "[Compound 2, 1,3-bisphosphonooxy-4-isopropylbenzene]", "values": [{"measurement": "Cell Count (%)", "setting": "Mouse B16 melanoma cells [1]; [3]", "result": 99, "unit": "%"}, {"measurement": "Cell Count (%)", "setting": "Mouse B16 melanoma cells [1]; [12]", "result": 95, "unit": "%"}, {"measurement": "Cell Count (%)", "setting": "Mouse B16 melanoma cells [1]; [13]", "result": 103, "unit": "%"}, {"measurement": "Melanin Amount Ratio (%)", "setting": "Mouse B16 melanoma cells [2]; [3]", "result": 47, "unit": "%"}, {"measurement": "Melanin Amount Ratio (%)", "setting": "Mouse B16 melanoma cells [2]; [12]", "result": 16, "unit": "%"}, {"measurement": "Melanin Amount Ratio (%)", "setting": "Mouse B16 melanoma cells [2]; [13]", "result": 13, "unit": "%"}]}, {"smiles": "O=P(O)(O)Oc1ccc(C2CCCCC2)c(OP(=O)(O)O)c1", "note": "[Compound 3, 1,3-bisphosphonooxy-4-cyclohexylbenzene]", "values": [{"measurement": "Cell Count (%)", "setting": "Mouse B16 melanoma cells [1]; [14]", "result": 102, "unit": "%"}, {"measurement": "Cell Count (%)", "setting": "Mouse B16 melanoma cells [1]; [15]", "result": 105, "unit": "%"}, {"measurement": "Cell Count (%)", "setting": "Mouse B16 melanoma cells [1]; [16]", "result": 101, "unit": "%"}, {"measurement": "Melanin Amount Ratio (%)", "setting": "Mouse B16 melanoma cells [2]; [14]", "result": 48, "unit": "%"}, {"measurement": "Melanin Amount Ratio (%)", "setting": "Mouse B16 melanoma cells [2]; [15]", "result": 20, "unit": "%"}, {"measurement": "Melanin Amount Ratio (%)", "setting": "Mouse B16 melanoma cells [2]; [16]", "result": 15, "unit": "%"}]}, {"smiles": "CC(C)c1ccc(O)cc1O", "note": "[Comparative Compound 2, 4-isopropylresorcinol]", "values": [{"measurement": "Cell Count (%)", "setting": "Mouse B16 melanoma cells [1]; [17]", "result": 99, "unit": "%"}, {"measurement": "Cell Count (%)", "setting": "Mouse B16 melanoma cells [1]; [18]", "result": 97, "unit": "%"}, {"measurement": "Cell Count (%)", "setting": "Mouse B16 melanoma cells [1]; [19]", "result": 98, "unit": "%"}, {"measurement": "Melanin Amount Ratio (%)", "setting": "Mouse B16 melanoma cells [2]; [17]", "result": 32, "unit": "%"}, {"measurement": "Melanin Amount Ratio (%)", "setting": "Mouse B16 melanoma cells [2]; [18]", "result": 17, "unit": "%"}, {"measurement": "Melanin Amount Ratio (%)", "setting": "Mouse B16 melanoma cells [2]; [19]", "result": 12, "unit": "%"}]}]}
